# Reference: ChEMBL document CHEMBL1201862, “PubChem BioAssay data set” (2004)
# Activity calls are given as the source filed them.
# Tests used:
# [1] = viability of PTEN-deleted HCT116 cells – cell-based, HCT116 PTEN knockout, dose response (AID 1047); assay type: functional;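 further: HCT116 colon tumor cells with PTEN knocked out; cells exposed to compound for 60 hours before readout; potency for loss of cell viability measured by luminescence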
# [2] = viability of HCT116 lacking mutant beta-catenin – cell-based, human colon tumor, dose response (AID 1045); assay type: functional;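 further: HCT116 colon tumor cells with beta catenin knocked out; cells exposed to compound for 60 hours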
# [3] = target: T1, Fructose-bisphosphate aldolase (Mycobacterium tuberculosis, UniProt P9WQA3); experiment: Fluorescence-based biochemical high throughput dose response assay for inhibitors of the fructose-bisphosphate aldolase (FBA) of M. tuberculosis.; assay type: functional
# T1 sequence (P9WQA3 whole entry): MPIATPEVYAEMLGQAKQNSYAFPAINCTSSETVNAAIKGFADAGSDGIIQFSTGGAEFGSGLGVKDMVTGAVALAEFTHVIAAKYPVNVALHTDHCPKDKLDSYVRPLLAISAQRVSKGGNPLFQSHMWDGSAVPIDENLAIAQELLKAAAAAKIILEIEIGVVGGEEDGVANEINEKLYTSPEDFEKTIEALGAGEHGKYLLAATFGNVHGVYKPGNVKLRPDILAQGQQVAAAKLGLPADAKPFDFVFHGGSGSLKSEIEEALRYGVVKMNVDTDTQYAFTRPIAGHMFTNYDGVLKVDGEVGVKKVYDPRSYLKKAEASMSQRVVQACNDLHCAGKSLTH
# [4] = target: Major prion protein (Homo sapiens, UniProt P04156); assay type: functional, cell-based
# [5] = cells
# [6] = cells; assay type: functional, cell-based
# [7] = cells; assay type: functional, cell-based; remark: listed apart in the source
# [8] = target: T2, RNA-binding protein pos-1 (Caenorhabditis elegans, UniProt G5EF15); experiment: disruptors of C. elegans POS-1 RNA interaction – biochemical, fluorescence polarization, dose response (AID 1964);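 further: purified POS-1 fused to maltose binding protein made in E. coli; potency of compounds blocking POS-1 binding to fluorescent RNA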
# T2 sequence (G5EF15 whole entry): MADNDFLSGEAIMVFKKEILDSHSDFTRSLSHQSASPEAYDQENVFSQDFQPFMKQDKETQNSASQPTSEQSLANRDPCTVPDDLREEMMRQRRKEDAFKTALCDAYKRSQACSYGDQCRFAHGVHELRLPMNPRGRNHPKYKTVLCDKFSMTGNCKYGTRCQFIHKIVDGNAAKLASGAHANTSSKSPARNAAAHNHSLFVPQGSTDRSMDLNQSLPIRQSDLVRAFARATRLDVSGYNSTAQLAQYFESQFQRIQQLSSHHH
# [9] = target: T3, Zinc finger protein mex-5 (Caenorhabditis elegans, UniProt Q9XUB2); experiment: potency of MEX-5 RNA-binding blockers – biochemical, C. elegans, fluorescence polarization, dose response (AID 1960)
# T3 sequence (Q9XUB2 whole entry): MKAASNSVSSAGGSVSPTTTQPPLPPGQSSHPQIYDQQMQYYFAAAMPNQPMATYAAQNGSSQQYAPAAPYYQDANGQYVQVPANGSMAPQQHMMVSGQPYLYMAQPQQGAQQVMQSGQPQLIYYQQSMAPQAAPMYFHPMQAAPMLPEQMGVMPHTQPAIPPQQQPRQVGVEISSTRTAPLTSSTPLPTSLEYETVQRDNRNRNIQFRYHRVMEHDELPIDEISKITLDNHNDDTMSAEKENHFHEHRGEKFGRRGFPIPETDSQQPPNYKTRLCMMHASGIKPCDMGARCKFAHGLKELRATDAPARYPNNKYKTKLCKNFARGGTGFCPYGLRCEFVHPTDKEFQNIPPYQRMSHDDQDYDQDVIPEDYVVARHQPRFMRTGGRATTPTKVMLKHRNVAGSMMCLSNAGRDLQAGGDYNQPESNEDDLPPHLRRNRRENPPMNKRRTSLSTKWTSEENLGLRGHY
# [10] = potency of ADAM10 substrate cleavage blockers – biochemical, QFRET, dose response (AID 743254);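 further: ADAM10 enzyme with the DM2 quenched FRET peptide as substrate; EDANS fluorescence gain as the protease cuts the substrate; inhibitor potency against ADAM10 proteolytic activity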
# [11] = target: Disintegrin and metalloproteinase domain-containing protein 17 (Homo sapiens, UniProt P78536); experiment: inhibition of ADAM17 substrate cleavage – biochemical, quenched FRET substrate, counter-screen for ADAM10 exosite inhibitor project, dose response (AID 743253)
# [12] = target: Glyceraldehyde-3-phosphate dehydrogenase (Homo sapiens, UniProt P04406)
# [13] = target: T4, Alkaline phosphatase, tissue-nonspecific isozyme (Homo sapiens, UniProt P05186); experiment: potency against alkaline phosphatase TNAP – biochemical, luminescent, dose response, SAR follow-up (AID 1056)
# T4 sequence (P05186 whole entry): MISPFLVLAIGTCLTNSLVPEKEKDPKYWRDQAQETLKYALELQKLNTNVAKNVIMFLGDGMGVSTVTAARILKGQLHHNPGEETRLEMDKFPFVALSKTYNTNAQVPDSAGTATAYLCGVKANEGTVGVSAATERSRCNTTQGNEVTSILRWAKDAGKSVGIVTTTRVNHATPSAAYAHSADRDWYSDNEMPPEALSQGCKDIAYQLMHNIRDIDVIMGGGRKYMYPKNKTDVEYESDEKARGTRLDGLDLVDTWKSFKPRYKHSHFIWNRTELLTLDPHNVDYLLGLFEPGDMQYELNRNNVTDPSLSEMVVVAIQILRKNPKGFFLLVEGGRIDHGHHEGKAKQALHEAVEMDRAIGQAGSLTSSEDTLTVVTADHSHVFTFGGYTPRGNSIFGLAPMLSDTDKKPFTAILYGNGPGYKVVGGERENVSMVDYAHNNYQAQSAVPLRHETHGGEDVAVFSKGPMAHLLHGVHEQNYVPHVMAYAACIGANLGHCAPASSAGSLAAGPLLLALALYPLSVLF
# [14] = target: T5, Oxysterols receptor LXR-beta (Homo sapiens, UniProt P55055); assay type: functional, cell-based;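 further: agonist activity at LXR measured by a cell-based luminescence readout across a dose range, run as a counterscreen for daf-12 agonists; HEK293 cells with Gal4-LXR fusion and GAL4-driven luciferase reporter; potency for activation of Gal4-LXR reporter so compounds are agonists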
# T5 sequence (P55055 whole entry): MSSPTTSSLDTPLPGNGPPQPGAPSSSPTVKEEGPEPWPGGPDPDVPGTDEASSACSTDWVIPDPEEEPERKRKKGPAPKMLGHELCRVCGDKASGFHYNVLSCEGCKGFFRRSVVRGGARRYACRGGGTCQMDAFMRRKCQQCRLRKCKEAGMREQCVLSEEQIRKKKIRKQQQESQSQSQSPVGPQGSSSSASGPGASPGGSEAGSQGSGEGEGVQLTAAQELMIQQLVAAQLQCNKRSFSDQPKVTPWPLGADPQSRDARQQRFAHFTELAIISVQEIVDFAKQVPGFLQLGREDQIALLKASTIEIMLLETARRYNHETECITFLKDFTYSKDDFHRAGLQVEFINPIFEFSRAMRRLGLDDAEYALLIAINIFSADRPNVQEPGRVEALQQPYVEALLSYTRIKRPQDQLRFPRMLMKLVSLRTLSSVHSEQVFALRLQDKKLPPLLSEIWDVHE
# [15] = Luminescence Cell-Based Dose Retest to Confirm Inhibitors of Cancer Stem Cells. [Related pubchem assays (depositor defined):AID2717, AID2721]; assay type: functional; conditions: Homo sapiens
# [16] = target: Paired box protein Pax-8 (Homo sapiens, UniProt Q06710); experiment: PAX8 transcriptional activity inhibition in RMG-I – RMG-I cells, luciferase, cherry-pick, dose response (AID 687027); assay type: functional, cell-based;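 further: luciferase reporter driven by Pax8 target thyroperoxidase promoter measured by SteadyGlo luminescence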
# [17] = general cell-killing toxicity readout – plate reader, dry powder samples, cytotoxicity control for PAX8 inhibitor project, dose response (AID 743021); assay type: functional, cell-based
# [18] = system: H4; experiment: Luminescence Cell-Based Dose Response HTS to Identify Activators of 5'UTR Stem-Loop Driven Prion Protein mRNA Translation in H4 Neuroglioblastoma Cells. [Related pubchem assays: 1829 (Project Summary), 1814 (Primary HTS)]; assay type: functional; conditions: Homo sapiens
# [19] = cells; assay type: functional, cell-based; remark: listed apart in the source
# [20] = target: T6, Nuclear receptor subfamily 0 group B member 1 (Homo sapiens, UniProt P51843); assay type: functional, cell-based;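 further: HEK293T cells transfected with SF-1 and DAX-1 plus StAR promoter luciferase reporter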
# T6 sequence (P51843 whole entry): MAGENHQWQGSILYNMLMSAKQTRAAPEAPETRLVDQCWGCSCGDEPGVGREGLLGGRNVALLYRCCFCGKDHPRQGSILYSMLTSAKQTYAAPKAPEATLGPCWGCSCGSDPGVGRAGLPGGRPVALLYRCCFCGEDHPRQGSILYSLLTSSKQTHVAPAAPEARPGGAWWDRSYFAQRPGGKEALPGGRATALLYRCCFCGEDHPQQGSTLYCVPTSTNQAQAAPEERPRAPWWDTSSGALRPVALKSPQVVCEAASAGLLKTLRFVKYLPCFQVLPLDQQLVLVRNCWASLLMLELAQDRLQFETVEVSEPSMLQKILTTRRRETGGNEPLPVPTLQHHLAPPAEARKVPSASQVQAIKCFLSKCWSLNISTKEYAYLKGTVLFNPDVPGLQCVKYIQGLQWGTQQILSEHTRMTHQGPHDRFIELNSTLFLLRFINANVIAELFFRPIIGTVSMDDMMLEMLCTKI
compound,measurement,setting,value
CCOC(=O)c1oc2cccc(OCC(O)CNC(C)C)c2c1C (configuration not stated),EC50,[1],45.6 µM (active)
same,EC50,[2],47.7 µM (active)
same,IC50,[3],0.843 µM (active)
CCOC(=O)CSc1nc(CC)nc2ccccc12,IC50,[4],1.08 µM (active)
same,IC50,[5],> 138 µM (inactive)
Cc1ccc(-c2nc3ccccc3nc2NN)cc1,EC50,[6],> 350 µM (not active)
same,EC50,[7],7.52 µM (active)
same,IC50,[3],> 10 µM (inactive)
Cc1nnc(S)c2nn(-c3cccc(Cl)c3)c(C)c12,EC50,[8],137 µM (active)
same,EC50,[9],153 µM (active)
same,IC50,[4],5.53 µM (active)
same,IC50,[5],> 138 µM (inactive)
COc1ccc(-c2c[nH]nc2-c2ccc(OCc3ccccc3)cc2O)cc1OC,IC50,[10],> 69.5 µM (inactive)
same,IC50,[11],> 69.5 µM (inactive)
COc1ccc(-c2nnc3oc(O)cc(C)c2-3)cc1,IC50,[12],> 100 µM (not active)
same,IC50,[13],1.06 µM (active)
same,IC50,[3],1.88 µM (active)
Cc1ccc(-c2cn3cccnc3n2)cc1,EC50,[14],> 67.6 µM (inactive)
Cc1cccc(OCCNC(=O)c2cccc(Oc3ccc(C(F)(F)F)cc3[N+](=O)[O-])c2)c1,AC50,[15],23.5 µM (active)
same,IC50,[10],27.5 µM (inactive)
same,IC50,[11],> 69.5 µM (inactive)
CC(=O)CSc1nc(O)c(C#N)c(-c2cccs2)n1,IC50,[5],> 138 µM (inactive)
Cc1ccc(S(=O)(=O)Nc2ccc3c(c2)CC(=O)N([C@@H](C)CO)C[C@H](C)[C@@H](CN(C)C(=O)Nc2ccc(C(F)(F)F)cc2)O3)cc1,AC50,[16],30.4 µM (active)
same,AC50,[17],43.1 µM (active)
O=C(/N=c1\nc2ccccn2s1)c1ccccc1,EC50,[18],5.73 µM (active)
same,IC50,[19],> 67.5 µM (inactive)
same,IC50,[20],> 67.5 µM (inactive)
